Assay results from ChEMBL document CHEMBL1145293, “Synthesis and SAR of GlyT1 inhibitors derived from a series of N-((4-(morpholine-4-carbonyl)-1-(propylsulfonyl)piperidin-4-yl)methyl)benzamides” (Bioorg Med Chem Lett, 2006).
In brackets after ≈: the same amount, converted by molar mass.

How the values were obtained:
[1] = molecular target: T1, Sodium- and chloride-dependent glycine transporter 1 (Homo sapiens, UniProt P48067); test: Inhibition of human GlyT1
T1 sequence (P48067 whole entry): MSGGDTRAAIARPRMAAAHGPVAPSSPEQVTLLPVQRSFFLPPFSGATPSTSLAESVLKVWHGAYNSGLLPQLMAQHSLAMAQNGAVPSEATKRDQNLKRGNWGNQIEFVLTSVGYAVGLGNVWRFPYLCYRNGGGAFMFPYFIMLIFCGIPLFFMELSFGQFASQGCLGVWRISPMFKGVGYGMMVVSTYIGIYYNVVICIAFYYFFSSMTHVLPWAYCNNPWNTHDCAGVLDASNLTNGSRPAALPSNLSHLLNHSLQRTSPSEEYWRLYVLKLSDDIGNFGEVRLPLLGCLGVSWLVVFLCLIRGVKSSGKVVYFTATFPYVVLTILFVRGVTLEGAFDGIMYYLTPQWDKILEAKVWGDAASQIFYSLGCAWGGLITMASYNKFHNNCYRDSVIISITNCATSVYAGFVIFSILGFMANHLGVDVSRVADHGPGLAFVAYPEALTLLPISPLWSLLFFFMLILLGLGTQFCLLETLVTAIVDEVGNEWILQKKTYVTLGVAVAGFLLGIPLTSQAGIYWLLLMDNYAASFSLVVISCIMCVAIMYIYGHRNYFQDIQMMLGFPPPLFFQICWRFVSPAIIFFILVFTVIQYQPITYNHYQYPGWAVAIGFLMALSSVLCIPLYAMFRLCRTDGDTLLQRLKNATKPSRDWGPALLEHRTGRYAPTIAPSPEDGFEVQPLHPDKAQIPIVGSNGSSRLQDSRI

[2] = molecular target: T2, Sodium- and chloride-dependent taurine transporter (Homo sapiens, UniProt P31641); test: Inhibition of human TauT
T2 sequence (P31641 whole entry): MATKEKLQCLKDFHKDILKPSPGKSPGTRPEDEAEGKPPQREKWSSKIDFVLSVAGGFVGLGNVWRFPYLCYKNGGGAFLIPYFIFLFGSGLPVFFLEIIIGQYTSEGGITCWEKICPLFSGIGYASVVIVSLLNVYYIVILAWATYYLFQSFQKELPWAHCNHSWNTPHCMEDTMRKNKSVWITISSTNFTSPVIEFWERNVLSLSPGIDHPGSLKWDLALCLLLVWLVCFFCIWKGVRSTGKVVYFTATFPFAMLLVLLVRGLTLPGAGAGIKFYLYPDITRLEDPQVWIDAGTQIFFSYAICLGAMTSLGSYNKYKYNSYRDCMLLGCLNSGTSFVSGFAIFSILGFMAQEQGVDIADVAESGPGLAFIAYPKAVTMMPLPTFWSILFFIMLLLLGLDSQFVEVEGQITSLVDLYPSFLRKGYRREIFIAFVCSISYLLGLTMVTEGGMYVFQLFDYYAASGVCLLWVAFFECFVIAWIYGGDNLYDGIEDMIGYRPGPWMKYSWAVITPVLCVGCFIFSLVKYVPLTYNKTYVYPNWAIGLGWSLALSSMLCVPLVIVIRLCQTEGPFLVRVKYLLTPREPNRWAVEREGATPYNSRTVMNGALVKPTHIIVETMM

[3] = molecular target: T3, Sodium- and chloride-dependent glycine transporter 2 (Homo sapiens, UniProt Q9Y345); test: Inhibition of human GlyT2
T3 sequence (Q9Y345 whole entry): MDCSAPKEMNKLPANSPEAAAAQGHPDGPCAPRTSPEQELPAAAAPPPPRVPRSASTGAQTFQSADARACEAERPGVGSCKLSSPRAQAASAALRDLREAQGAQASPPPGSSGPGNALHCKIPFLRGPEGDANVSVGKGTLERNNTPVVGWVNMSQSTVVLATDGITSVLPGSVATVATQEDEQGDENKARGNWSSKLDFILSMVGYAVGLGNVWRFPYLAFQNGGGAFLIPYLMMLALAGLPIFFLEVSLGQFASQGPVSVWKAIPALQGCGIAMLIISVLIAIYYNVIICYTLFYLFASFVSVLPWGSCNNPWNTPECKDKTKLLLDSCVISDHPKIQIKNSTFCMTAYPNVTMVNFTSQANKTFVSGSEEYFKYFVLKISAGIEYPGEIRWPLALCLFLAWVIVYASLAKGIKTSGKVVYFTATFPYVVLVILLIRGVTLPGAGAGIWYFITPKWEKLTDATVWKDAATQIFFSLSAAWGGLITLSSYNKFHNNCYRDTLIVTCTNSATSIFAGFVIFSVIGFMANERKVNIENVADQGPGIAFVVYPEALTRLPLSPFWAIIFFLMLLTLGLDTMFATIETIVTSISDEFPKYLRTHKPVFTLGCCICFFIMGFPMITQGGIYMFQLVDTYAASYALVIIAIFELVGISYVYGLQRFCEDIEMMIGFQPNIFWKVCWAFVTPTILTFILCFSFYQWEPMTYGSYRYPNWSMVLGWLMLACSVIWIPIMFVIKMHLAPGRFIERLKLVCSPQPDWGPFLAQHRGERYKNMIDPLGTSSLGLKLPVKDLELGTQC

Caco-2 [4] = test: Ratio of permeability from basolateral to apical over apical to basolateral side of Caco-2 cell expressing human p-glycoprotein; type: ADME, cell-based
[5] = Clearance in rat; type: ADME, organism-based; settings: in vivo
[6] = Aqueous solubility of the compound; type: physicochemical
[7] = Half life in rat; type: ADME, organism-based; settings: in vivo
Caco-2 [8] = test: Ratio of permeability from basolateral to apical over apical to basolateral side of Caco-2 cell expressing mouse p-glycoprotein; type: ADME, cell-based; settings: human
Cytochrome P450 2D6 = Cytochrome P450 2D6 (Homo sapiens, UniProt P10635); test: Inhibition of CYP2D6; type: ADME
Chain of Cytochrome P450 2D6 (P10635 whole entry): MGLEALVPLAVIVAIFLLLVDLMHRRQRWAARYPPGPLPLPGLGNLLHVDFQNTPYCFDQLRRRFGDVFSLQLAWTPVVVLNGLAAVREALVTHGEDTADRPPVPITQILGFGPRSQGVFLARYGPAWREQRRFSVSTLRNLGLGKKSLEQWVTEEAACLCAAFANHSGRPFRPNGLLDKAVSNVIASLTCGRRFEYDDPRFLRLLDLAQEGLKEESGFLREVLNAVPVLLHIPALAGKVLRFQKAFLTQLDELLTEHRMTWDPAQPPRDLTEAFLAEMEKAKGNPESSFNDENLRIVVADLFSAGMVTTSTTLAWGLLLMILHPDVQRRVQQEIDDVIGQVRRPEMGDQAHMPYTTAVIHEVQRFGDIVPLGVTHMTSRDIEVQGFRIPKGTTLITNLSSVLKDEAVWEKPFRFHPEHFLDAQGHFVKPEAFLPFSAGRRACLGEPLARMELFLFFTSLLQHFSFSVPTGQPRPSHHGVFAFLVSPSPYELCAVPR

Cytochrome P450 2C9 = Cytochrome P450 2C9 (Homo sapiens, UniProt P11712); test: Inhibition of CYP2C9; type: ADME
Chain of Cytochrome P450 2C9 (P11712 whole entry): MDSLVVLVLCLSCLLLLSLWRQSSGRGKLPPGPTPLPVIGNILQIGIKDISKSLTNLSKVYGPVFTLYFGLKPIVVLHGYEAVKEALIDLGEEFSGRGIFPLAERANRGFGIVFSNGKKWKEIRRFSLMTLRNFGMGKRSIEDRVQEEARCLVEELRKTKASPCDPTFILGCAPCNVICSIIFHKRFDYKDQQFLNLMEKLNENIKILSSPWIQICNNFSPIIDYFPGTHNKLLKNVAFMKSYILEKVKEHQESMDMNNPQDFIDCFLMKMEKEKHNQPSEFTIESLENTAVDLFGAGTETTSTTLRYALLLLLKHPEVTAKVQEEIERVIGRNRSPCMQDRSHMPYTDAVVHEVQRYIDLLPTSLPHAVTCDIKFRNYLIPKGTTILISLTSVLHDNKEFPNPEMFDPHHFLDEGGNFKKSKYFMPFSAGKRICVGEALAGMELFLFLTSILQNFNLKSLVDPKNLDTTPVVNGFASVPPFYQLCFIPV

[9] = Apparent permeability in Caco-2 cells; type: ADME, cell-based; settings: human
Cytochrome P450 3A4 = Cytochrome P450 3A4 (Homo sapiens, UniProt P08684); test: Inhibition of CYP3A4; type: ADME
Chain of Cytochrome P450 3A4 (P08684 whole entry): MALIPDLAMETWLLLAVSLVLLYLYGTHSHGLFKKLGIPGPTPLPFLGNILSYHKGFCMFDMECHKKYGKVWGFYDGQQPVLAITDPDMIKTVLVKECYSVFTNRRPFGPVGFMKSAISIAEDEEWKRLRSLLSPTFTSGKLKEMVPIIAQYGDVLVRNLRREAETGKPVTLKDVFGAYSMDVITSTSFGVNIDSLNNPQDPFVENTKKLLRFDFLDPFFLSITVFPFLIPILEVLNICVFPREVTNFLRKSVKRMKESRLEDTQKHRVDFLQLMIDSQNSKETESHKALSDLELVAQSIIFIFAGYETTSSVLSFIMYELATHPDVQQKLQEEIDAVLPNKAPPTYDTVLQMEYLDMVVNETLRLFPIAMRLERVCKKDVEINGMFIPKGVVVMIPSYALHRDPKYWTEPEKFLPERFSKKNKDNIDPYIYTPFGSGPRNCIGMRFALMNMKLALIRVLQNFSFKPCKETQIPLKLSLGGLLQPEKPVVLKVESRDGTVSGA

[10] = Partition coefficient, log P of the compound; type: physicochemical; settings: octanol/water

Row | SMILES | IC50 [1] [µM] | IC50 [2] [µM] | IC50 [3] [µM] | Ratio (Caco-2 [4]) | clearance [5] [mL/min/kg] | solubility [6] [µg/mL] | half-life [7] [min] | Ratio (Caco-2 [8]) | Activity (Cytochrome P450 2D6) | Activity (Cytochrome P450 2C9) | Papp [9] [×10⁻⁶ cm/s] | Activity (Cytochrome P450 3A4) | logP [10]
1 | CCCS(=O)(=O)N1CCC(CNC(=O)c2ccc(Cl)cc2Cl)(C(=O)C2CC2)CC1 | 0.472 | > 30 | > 30 | – | – | – | – | – | – | – | – | – | –
2 | CCCS(=O)(=O)N1CCC(CNC(=O)C2CC2)(C(=O)N2CCOCC2)CC1 | > 5 | > 30 | > 30 | 10.6 | 18 | 10000 (≈ 24.9 mM) | 18 | 8.9 | Not Active | Not Active | > 22 | Not Active | < 1.4
3 | CCCS(=O)(=O)N1CCC(CNC(=O)c2ccc(Cl)cc2Cl)(C(=O)NCC)CC1 | 0.517 | > 30 | > 30 | – | – | – | – | – | – | – | – | – | –
4 | CCCS(=O)(=O)N1CCC(CNC(=O)c2ccc(Cl)cc2Cl)(C(=O)N2CCC(N(C)C)C2)CC1 (centres undefined) | 0.544 | > 30 | > 30 | – | – | – | – | – | – | – | – | – | –
5 | CCCS(=O)(=O)N1CCC(C(=O)N2CCOCC2)([C@H](C)NC(=O)c2ccc(Cl)cc2Cl)CC1 | > 5 | – | – | – | – | – | – | – | – | – | – | – | –
6 | CCCS(=O)(=O)N1CCC(CNC(=O)CC)(C(=O)N2CCOCC2)CC1 | > 5 | > 30 | > 30 | 10.6 | 18 | 10000 (≈ 25.7 mM) | 18 | 8.9 | Not Active | Not Active | > 22 | Not Active | < 1.4
7 | CCCS(=O)(=O)N1CCC(C(=O)N2CCOCC2)([C@@H](C)NC(=O)c2ccc(Cl)cc2Cl)CC1 | > 5 | – | – | – | – | – | – | – | – | – | – | – | –
8 | CCCS(=O)(=O)N1CCC(CNC(=O)c2ccc(Cl)cc2Cl)(C(=O)N2CCN(C)CC2)CC1 | > 5 | > 30 | > 30 | – | – | – | – | – | – | – | – | – | –

These reach a lower IC50 [1]. Values come first.

Row | IC50 [1] [µM] | IC50 [2] [µM] | IC50 [3] [µM] | Ratio (Caco-2 [4]) | clearance [5] [mL/min/kg] | solubility [6] [µg/mL] | half-life [7] [min] | Ratio (Caco-2 [8]) | Activity (Cytochrome P450 2D6) | Activity (Cytochrome P450 2C9) | Papp [9] [×10⁻⁶ cm/s] | Activity (Cytochrome P450 3A4) | logP [10] | SMILES
9 | 0.264 | > 30 | > 30 | 10.6 | 18 | 10000 (≈ 22.9 mM) | 18 | 8.9 | Not Active | Not Active | > 22 | Not Active | < 1.4 | CCCS(=O)(=O)N1CCC(CNC(=O)c2ccccc2)(C(=O)N2CCOCC2)CC1
10 | 0.0884 | > 30 | > 30 | 10.6 | 18 | 10000 (≈ 19.2 mM) | 18 | 8.9 | Not Active | Not Active | > 22 | Not Active | < 1.4 | CCCS(=O)(=O)N1CCC(CNC(=O)c2ccccc2OC(F)(F)F)(C(=O)N2CCOCC2)CC1
11 | 0.131 | > 30 | > 30 | 10.6 | 18 | 10000 (≈ 21.1 mM) | 18 | 8.9 | Not Active | Not Active | > 22 | Not Active | < 1.4 | CCCS(=O)(=O)N1CCC(CNC(=O)c2c(F)cccc2F)(C(=O)N2CCOCC2)CC1
12 | 0.109 | > 30 | > 30 | – | – | – | – | – | – | – | – | – | – | CCCS(=O)(=O)N1CCC(CNC(=O)c2ccc(Cl)cc2Cl)(C(=O)N2CC(N)C2)CC1
13 | 0.0428 | > 30 | > 30 | 10.6 | 18 | 10000 (≈ 19.1 mM) | 18 | 8.9 | Not Active | Not Active | > 22 | Not Active | < 1.4 | CCCS(=O)(=O)N1CCC(CNC(=O)c2ccc(C(F)(F)F)cc2F)(C(=O)N2CCOCC2)CC1
14 | 0.0678 | > 30 | > 30 | 10.6 | 18 | 10000 (≈ 19.1 mM) | 18 | 8.9 | Not Active | Not Active | > 22 | Not Active | < 1.4 | CCCS(=O)(=O)N1CCC(CNC(=O)c2ccc(F)cc2C(F)(F)F)(C(=O)N2CCOCC2)CC1
15 | 0.069 | > 30 | > 30 | – | – | – | – | – | – | – | – | – | – | CCCS(=O)(=O)N1CCC(CNC(=O)c2ccc(Cl)cc2Cl)(C(=O)NCC2(C)COC2)CC1
16 | 0.181 | > 30 | > 30 | – | – | – | – | – | – | – | – | – | – | CCCS(=O)(=O)N1CCC(CNC(=O)c2ccc(Cl)cc2Cl)(C(=O)N(C)C)CC1
